Converted amounts (≈) assume the structure as drawn. The source made the active and inactive calls. The rule behind the calls is not given here.
What was measured:
[1] = system: Acinetobacter baumannii; test: Antibiofilm activity against Acinetobacter baumannii S1 assessed as inhibition rate of biofilm formation at 100 uM incubated for 18 to 24 hrs by crystal violet staining based assay (reference value: 28.8 +/- 8.21%); assay type: functional; set-up: scale not given: the % may be the effect or the level left; settings: time 18-24 hrs
[2] = system: Acinetobacter baumannii; test: Antibacterial activity against Acinetobacter baumannii S1 assessed as planktonic growth inhibition incubated for 18 to 24 hrs by CLSI protocol based assay; assay type: functional; settings: time 18-24 hrs
[3] = system: Acinetobacter baumannii; test: Synergistic antibacterial activity against Acinetobacter baumannii assessed as planktonic growth inhibition incubated for 18 to 24 hrs in the presence of chloramphenicol by CLSI protocol based checkerboard assay; assay type: functional; settings: time 18-24 hrs
[4] = system: Acinetobacter baumannii; test: Antibiofilm activity against Acinetobacter baumannii assessed as reduction in extracellular polysaccharides at 100 uM incubated for 1 hrs by ELISA analysis; assay type: functional; set-up: scale not given: the % may be the effect or the level left
[5] = system: Acinetobacter baumannii; test: Synergistic antibacterial activity against Acinetobacter baumannii assessed as planktonic growth inhibition incubated for 18 to 24 hrs in the presence of oxacillin by CLSI protocol based checkerboard assay; assay type: functional; settings: time 18-24 hrs
[6] = system: 3T3-L1; test: Cytotoxicity against mouse 3T3-L1 cells assessed as reduction in cell viability at 200 uM incubated for 24 hrs by MTT assay relative to control; assay type: toxicity, cell-based; settings: 3t3-l1, 24 h
[7] = system: Acinetobacter baumannii; test: Synergistic antibacterial activity against Acinetobacter baumannii assessed as fractional inhibitory concentration index incubated for 18 to 24 hrs in the presence of oxacillin by CLSI protocol based checkerboard assay; assay type: functional; settings: time 18-24 hrs
[8] = system: Acinetobacter baumannii; test: Synergistic antibacterial activity against Acinetobacter baumannii assessed as fractional inhibitory concentration index incubated for 18 to 24 hrs in the presence of gentamycin sulphate by CLSI protocol based checkerboard assay; assay type: functional; settings: time 18-24 hrs
[9] = system: Acinetobacter baumannii; test: Antibiofilm activity against Acinetobacter baumannii 1913061 assessed as inhibition of biofilm formation incubated for 18 to 24 hrs by crystal violet staining based assay; assay type: functional, organism-based
[10] = system: Acinetobacter baumannii; test: Antibiofilm activity against Acinetobacter baumannii 1925052 assessed as inhibition of biofilm formation incubated for 18 to 24 hrs by crystal violet staining based assay; assay type: functional, organism-based
[11] = system: Acinetobacter baumannii; test: Antibiofilm activity against Acinetobacter baumannii assessed as reduction in biofilm thickness at 100 uM incubated for 24 hrs by Alexa fluor 488 staining based confocal laser microscopic analysis (reference value: 25.91); assay type: functional
[12] = system: Acinetobacter baumannii; test: Antibiofilm activity against Acinetobacter baumannii 1780608 assessed as inhibition of biofilm formation incubated for 18 to 24 hrs by crystal violet staining based assay; assay type: functional, organism-based
[13] = system: 3T3-L1; test: Cytotoxicity against mouse 3T3-L1 cells assessed as reduction in cell viability at 12.5 uM incubated for 24 hrs by MTT assay relative to control; assay type: toxicity, cell-based; settings: 3t3-l1, 24 h
[14] = system: Pseudomonas aeruginosa; test: Antibiofilm activity against Pseudomonas aeruginosa ATCC 27853 assessed as inhibition of biofilm formation incubated for 18 to 24 hrs by crystal violet staining based assay; assay type: functional, organism-based
[15] = system: Acinetobacter baumannii; test: Antibiofilm activity against Acinetobacter baumannii S1 assessed as inhibition of biofilm formation incubated for 18 to 24 hrs by crystal violet staining based assay; assay type: functional, organism-based
[16] = system: Acinetobacter baumannii; test: Antibiofilm activity against Acinetobacter baumannii ATCC19606 assessed as inhibition of biofilm formation incubated for 18 to 24 hrs by crystal violet staining based assay; assay type: functional, organism-based
[17] = Cytotoxicity against mouse 3T3-L1 cells assessed as inhibition of cell growth incubated for 24 hrs by MTT assay; assay type: toxicity, cell-based
[18] = system: Acinetobacter baumannii; test: Antibacterial activity against Acinetobacter baumannii assessed as planktonic growth inhibition incubated for 18 to 24 hrs by CLSI protocol based assay; assay type: functional; settings: time 18-24 hrs
[19] = system: Acinetobacter baumannii; test: Synergistic antibacterial activity against Acinetobacter baumannii assessed as fractional inhibitory concentration index incubated for 18 to 24 hrs in the presence of chloramphenicol by CLSI protocol based checkerboard assay; assay type: functional; settings: time 18-24 hrs
[20] = system: Acinetobacter baumannii; test: Antibiofilm activity against Acinetobacter baumannii assessed as reduction in bacterial motility in agar plates by quorum sensing process at 100 uM incubated for 24 hrs; assay type: functional, organism-based
[21] = system: Escherichia coli; test: Antibiofilm activity against Escherichia coli Dh5alpha assessed as inhibition of biofilm formation incubated for 18 to 24 hrs by crystal violet staining based assay; assay type: functional, organism-based; settings: DH5-alpha
[22] = system: 3T3-L1; test: Cytotoxicity against mouse 3T3-L1 cells assessed as reduction in cell viability at 100 uM incubated for 24 hrs by MTT assay relative to control; assay type: toxicity, cell-based; settings: 3t3-l1, 24 h
[23] = system: 3T3-L1; test: Cytotoxicity against mouse 3T3-L1 cells assessed as reduction in cell viability at 50 uM incubated for 24 hrs by MTT assay relative to control; assay type: toxicity, cell-based; settings: 3t3-l1, 24 h
[24] = system: 3T3-L1; test: Cytotoxicity against mouse 3T3-L1 cells assessed as reduction in cell viability at 25 uM incubated for 24 hrs by MTT assay relative to control; assay type: toxicity, cell-based; settings: 3t3-l1, 24 h
[25] = system: Acinetobacter baumannii; test: Antibiofilm activity against Acinetobacter baumannii assessed as reduction in biofilm brightness at 100 uM incubated for 24 hrs by Alexa fluor 488 staining based confocal laser microscopic analysis; assay type: functional, organism-based
[26] = system: Staphylococcus aureus; test: Antibiofilm activity against Staphylococcus aureus ATCC […] assessed as inhibition of biofilm formation incubated for 18 to 24 hrs by crystal violet staining based assay; assay type: functional, organism-based
[27] = system: Acinetobacter baumannii; test: Synergistic antibacterial activity against Acinetobacter baumannii assessed as planktonic growth inhibition incubated for 18 to 24 hrs in the presence of gentamycin sulphate by CLSI protocol based checkerboard assay; assay type: functional; settings: time 18-24 hrs
[28] = system: Acinetobacter baumannii; test: Antibiofilm activity against Acinetobacter baumannii 1778027 assessed as inhibition of biofilm formation incubated for 18 to 24 hrs by crystal violet staining based assay; assay type: functional, organism-based
[29] = system: Staphylococcus epidermidis; test: Antibiofilm activity against Staphylococcus epidermis ATCC 102555 assessed as inhibition of biofilm formation incubated for 18 to 24 hrs by crystal violet staining based assay; assay type: functional, organism-based
[30] = system: Escherichia coli; test: Antibiofilm activity against Escherichia coli Dh5alpha assessed as inhibition rate of biofilm formation at 200 uM incubated for 18 to 24 hrs by crystal violet staining based assay relative to control; assay type: functional; settings: DH5-alpha, time 18-24 hrs
[31] = system: Staphylococcus aureus; test: Antibiofilm activity against Staphylococcus aureus ATCC […] assessed as inhibition rate of biofilm formation at 200 uM incubated for 18 to 24 hrs by crystal violet staining based assay relative to control; assay type: functional; settings: time 18-24 hrs
[32] = system: Pseudomonas aeruginosa; test: Antibiofilm activity against Pseudomonas aeruginosa ATCC 27853 assessed as inhibition rate of biofilm formation at 200 uM incubated for 18 to 24 hrs by crystal violet staining based assay relative to control; assay type: functional; settings: time 18-24 hrs
[33] = system: Staphylococcus epidermidis; test: Antibiofilm activity against Staphylococcus epidermis ATCC 102555 assessed as inhibition rate of biofilm formation at 200 uM incubated for 18 to 24 hrs by crystal violet staining based assay relative to control; assay type: functional; settings: time 18-24 hrs

SMILES: CCCCCCCCCCCCCC(=O)Nc1nc(Cl)c(Cl)c(Cl)n1
- Activity [1]: 32%
- MIC [2]: > 256 µg/mL

SMILES: O=C(Nc1ncccn1)C1CCC1
- Activity [1]: 26.8%
- MIC [2]: > 256 µg/mL

SMILES: CCCCCCCC(=O)Nc1ncccn1
- Activity [1]: 17.8%
- MIC [2]: > 256 µg/mL

SMILES: CCCCCCCCCCCCCC(=O)Nc1nc(Cl)cc(N2CCNCC2)n1
- MIC [3]: 64 µg/mL
- Activity [4]: 72%
- MIC [5]: 128 µg/mL
- Activity [6]: 20.84%
- fractional inhibitory concentration index (FICI) [7]: 0.25
- fractional inhibitory concentration index (FICI) [8]: 0.13
- IC50 [9]: 1.89 µM
- IC50 [10]: 3.98 µM
- Activity [11]: 14.68
- IC50 [12]: 5.92 µM
- Activity [1]: 70.2%
- Activity [13]: 99.3%
- IC50 [14]: 9.98 µM
- IC50 [15]: 16.5 µM
- IC50 [16]: 4.43 µM
- IC50 at 24 h [17]: 73.6 µM
- MIC [18]: 256 µg/mL (≈ 604 µM)
- MIC [2]: > 256 µg/mL
- fractional inhibitory concentration index (FICI) [19]: 0.25
- Activity [20]: Active
- IC50 [21]: 3.68 µM
- Activity [22]: 21.11%
- Activity [23]: 80.61%
- Activity [24]: 99.3%
- Activity [25]: Active
- IC50 [26]: 11.2 µM
- MIC [27]: 0.125 µg/mL
- IC50 [28]: 47.5 µM
- IC50 [29]: 6.76 µM

SMILES: CCCCCCCCCCCCCC(=O)Nc1nccc(Cl)n1
- Activity [1]: 44.9%
- MIC [2]: > 256 µg/mL

SMILES: O=C(/C=C/c1ccccc1)Nc1ncccn1
- Activity [1]: 13.6%
- MIC [2]: > 256 µg/mL

SMILES: CCCCCCCCCCCCCC(=O)Nc1nc(C)cc(O)n1
- Activity [1]: 37.8%
- MIC [2]: > 256 µg/mL

SMILES: CCCCCCCCCCCCCC(=O)Nc1nc(F)cc(F)n1
- Activity [1]: 20.8%

SMILES: O=C(N[C@H](CO)[C@H](O)c1ccc([N+](=O)[O-])cc1)C(Cl)Cl [CHLORAMPHENICOL]
- MIC [18]: 256 µg/mL (≈ 792 µM)

SMILES: O=C(Nc1ncccn1)c1ccccc1
- Activity [1]: 28%
- MIC [2]: > 256 µg/mL

SMILES: Cc1onc(-c2ccccc2)c1C(=O)N[C@@H]1C(=O)N2[C@@H]1SC(C)(C)[C@@H]2C(=O)O [OXACILLIN]
- MIC [18]: 512 µg/mL (≈ 1280 µM)

SMILES: O=C(Nc1ncccn1)OCc1ccccc1
- Activity [1]: 24.5%
- MIC [2]: > 256 µg/mL

SMILES: O=C(Cc1cccs1)Nc1ncccn1
- Activity [1]: 5.5%
- MIC [2]: > 256 µg/mL

SMILES: CCCCCCCCCCCCCC(=O)Nc1nccc(C)n1
- Activity [1]: 26.9%
- MIC [2]: > 256 µg/mL

SMILES: Cc1cc(C)c(C(=O)Nc2ncccn2)c(C)c1
- Activity [1]: 26.9%
- MIC [2]: > 256 µg/mL

SMILES: O=C(Nc1ncccn1)c1ccc([N+](=O)[O-])cc1
- Activity [1]: 25.1%
- MIC [2]: > 256 µg/mL

SMILES: CCCCCCCCCCCCCC(=O)Nc1nc(C)cc(Cl)n1
- Activity [1]: 46.6%
- MIC [2]: > 256 µg/mL

SMILES: CCCCCCCCCCCCCC(=O)Nc1nc(Cl)cc(NC)n1
- Activity [1]: 27%
- MIC [2]: > 256 µg/mL

SMILES: CCCCCCCCCCCCCC(=O)Nc1nc(N)cc(Cl)n1
- inhibition at 200 µM [30]: < 50%
- MIC [3]: 64 µg/mL
- inhibition at 200 µM [31]: < 50%
- Activity [4]: 65%
- MIC [5]: 128 µg/mL
- Activity [6]: 101.81%
- fractional inhibitory concentration index (FICI) [7]: 0.25
- fractional inhibitory concentration index (FICI) [8]: 0.25
- IC50 [9]: 16.5 µM
- IC50 [10]: 68.1 µM
- Activity [11]: 16.04
- IC50 [12]: 43.3 µM
- Activity [1]: 69.9%
- Activity [13]: 99.88%
- IC50 [15]: 39.3 µM
- IC50 [16]: 6.34 µM
- MIC [18]: 256 µg/mL (≈ 721 µM)
- MIC [2]: > 256 µg/mL
- fractional inhibitory concentration index (FICI) [19]: 0.25
- Activity [20]: Active
- Activity [22]: 100.68%
- Activity [23]: 100.81%
- Activity [24]: 100.89%
- MIC [27]: 0.125 µg/mL
- IC50 [28]: 11.4 µM
- inhibition at 200 µM [32]: < 50%
- inhibition at 200 µM [33]: < 50%

SMILES: CCCCCCCCCCCCCC(=O)Nc1nc(Cl)cc(Cl)n1
- Activity [1]: 63.1%
- MIC [2]: > 256 µg/mL

SMILES: CCCCCCCCCCCCCC(=O)Nc1ncc(Br)cn1
- Activity [1]: 31.1%
- MIC [2]: > 256 µg/mL

SMILES: CCCCCCCCCCCCCC(=O)Nc1nc(Cl)cc(N2CCOCC2)n1
- Activity [1]: 28.5%
- MIC [2]: > 256 µg/mL

SMILES: CCCC(=O)Nc1ncccn1
- Activity [1]: 28.3%
- MIC [2]: > 256 µg/mL

Source: ChEMBL document CHEMBL5150056, “Synthesis and antibiofilm evaluation of N-acyl-2-aminopyrimidine derivatives against Acinetobacter baumannii” (Bioorg Med Chem, 2022)
